“Also recorded” adds a separate entry of the source.
Experiments:
RAW macrophages = assay: IL-6 expression of RAW macrophages with LPS and NF-kB inhibitors (Example 2)
systemic TNF-a and IL-6 [1] = assay: Systemic cytokines after vaccination with NF-kB inhibitor, CpG and ovalbumin (Example 2); format: in vivo, mouse; conditions: one hour post-vaccination
systemic TNF-α and IL-6 = assay: Systemic cytokines after gp120 vaccination; format: in vivo, mouse; conditions: gp120 antigen, 1 h
Description: To examine how this would translate in vivo, the inventors vaccinated mice with CpG (50 μg), Pam3CSK4 (20 μg) and R848 (50 μg) using gp120 as the antigen.
Mice were anesthetized lightly with isoflurane and injected intramuscularly in the hind leg with 50 uL containing antigen, adjuvant and PBS. […] CpG dose, 50 μg. SN50, 500 TNF-aN, 30 μg. IL-6N, 30 μg.
Blood was collected from mice at specified time points in 0.2 mL heparin coated collection tubes (VWR Scientific). Serum was isolated via centrifugation 2000×g for 5 min. Supernatant was collected and stored at −80° C. until use. Serum was analyzed using BD Cytometric Bead Array Mouse Th1/Th2/Th17 cytokine kit or Mouse Inflammation cytokine kit according to manufacturer's protocol. Briefly, beads containing antibodies for desired cytokines were mixed with 50 μL serum and 50 μL PE detection reagent and incubated for 2 h. Beads were washed and analyzed using BD Accuri C6 flow cytometer. Data was analyzed using BD Accuri C6 software and Graphpad Prism.

RAW 264.7 macrophages = assay: RAW macrophage cytokine analysis, IL-6 with LPS (Example 3); format: cell-based, mouse; conditions: for inhibition of IL-6 expression in vitro: capsaicin 200 μM, honokiol 20 μM, WA 400 nM
Text: To begin exploring alternative NF-κB inhibitors, the inventors examined the literature for promising candidates. Due to the strong correlation between NF-KB activation and sepsis, cancer and autoimmune disorders, a large library of NF-κB inhibitors have been identified. The inventors first wanted to analyze the potential of a variety small molecule NF-κB inhibitors to inhibit inflammation in vitro in combination with lipopolysaccharide (LPS), a TLR4 agonist. The inventors chose several common commercially available NF-κB inhibitors and tested them in RAW macrophages. […] To determine if immune potentiation was specific to NFkB or general to all anti-inflammatory molecules, the inventors included the most common, FDA approved anti-inflammatory drugs acetaminophen (10 mM) and ibuprofen (800 μM). The inventors treated RAW macrophages with inhibitors and LPS and assayed the supernatant for IL-6 secretion (FIG. 18A).
The inventors examined the activities of the synthesized compounds in order to understand how the various functional groups affect anti-inflammatory action or adaptive immune response (FIGS. 23, 25). The inventors treated RAW macrophages with honokiol derivatives and LPS and analyzed IL-6 expression. The addition of LPS alone without a honokiol derivative gave high levels of IL-6 expression (6848 pg/mL). The addition of honokiol decreased IL-6 levels to 260 pg/mL, a decrease of 26-fold.
RAW macrophage cytokine analysis: RAW 264.7 macrophages were passaged and plated in a cell culture treated 12-well plate at 0.5×10^6 cells/well in 1 mL DMEM containing 10% FBS. Cells were grown for 2 days. Media was exchanged for 1 mL DMEM containing 10% HIFBS. Inhibitors were added at indicated concentrations and incubated for 45 min. After 45 min, LPS was added at 100 ng/mL and incubated at 37° C. and 5% CO2 for 24 h. Cell supernatant was removed and analyzed using BD Cytometric Bead Array Mouse Inflammation Kit.

systemic cytokines = assay: Plasma cytokine analysis after OVA/CpG/AddaVax vaccination (Example 3); format: in vivo, mouse; conditions: for systemic MCP-1 / systemic IFN-γ: combined with CpG; for systemic IFN-γ: 24 h; for systemic IL-6 vs CpG alone, dose study / systemic TNF-α vs CpG alone, all doses / systemic TNF-α, comparison between doses: honokiol 200, 400, 800 μg, capsaicin 1, 5, 20 μg
systemic TNF-a and IL-6 [2] = assay: Systemic cytokines, AddaVax vaccines with CpG or Pam3CSK4 (Example 2); format: in vivo, mouse; conditions: CpG or Pam3CSK4, ovalbumin, one hour
ovalbumin = assay: Anti-ovalbumin antibody titer day 21, AddaVax vaccines (Example 2); format: in vivo, mouse
Text: The inventors next wanted to examine how capsaicin, honokiol and WA would work with other TLR agonists. Additionally, the inventors wanted to compare these inhibitors to the most commonly used anti-inflammatory drugs, ibuprofen and acetaminophen. The inventors formulated the vaccines using AddaVax, an oil-in-water emulsion to ensure solubility of the inhibitors. The inventors used either CpG, a TLR 9 agonist or Pam3CSK4, a TLR 1/2 agonist as the immune adjuvant and ovalbumin as the antigen. The inventors analyzed systemic cytokines one hour post-vaccination. […] On day 21 the inventors analyzed the anti-ovalbumin antibody titer.

ovalbumin (OVA) = assay: Anti-OVA antibody quantification day 21 (Example 3); format: in vivo, mouse
[3] = Pain response observed after vaccination; format: in vivo, mouse; conditions: original dose 20 μg
[4] = test system: non-human primate (NHP) primary peripheral blood mononuclear cells (PBMCs); assay: NHP PBMCs stimulated with LPS with or without SN50; format: cell-based; conditions: 6 h
Description: To understand how this may translate to human vaccinations, the inventors treated THP-1 monocytes with […] LPS with or without SN50. […] Additionally, the inventors examined the effects of SN50 on non-human primate (NHP) primary peripheral blood mononuclear cells (PBMCs). The inventors stimulated NHP PBMCs with SN50 and LPS or LPS alone for 6 h and analyzed the cell supernatant for pro-inflammatory cytokines. […] This implies that SN50 may work similarly in NHP and humans as it does in mice.

[5] = inhibitor 45 min before 100 ng/mL LPS, 3 h
[6] = 100 μg OVA, 50 μg CpG + inhibitor, AddaVax, 1 h
[7] = 100 μg OVA, 50 μg CpG, AddaVax, 1 h

## COc1cc(O)c2c(c1)/C=C/C[C@H](O)[C@H](O)C(=O)/C=C\C[C@H](C)OC2=O [5-z-o, 5Z-7-Oxozeaenol]
RAW macrophages; [5]
  IL-6 expression: complete reduction of IL-6 to background levels; also recorded: completely inhibited IL-6 expression

## O=C(/C=C/c1ccc(O)c(O)c1)OCCc1ccccc1 [CAPE, Caffeic acid phenethyl ester]
RAW macrophages; [5]
  IL-6 expression: complete reduction of IL-6 to background levels; also recorded: completely inhibited IL-6 expression
Systemic TNF-a and IL-6 [1]
  systemic IL-6: about a two-fold decrease in IL-6 levels
  systemic TNF-a: no change in systemic TNF-a levels compared to CpG alone

## CCOCc1nc2c(N)nc3ccccc3c2n1CC(C)(C)O [R848]
Systemic TNF-α and IL-6
  systemic TNF-α and IL-6, effect of adding SN50 to the named adjuvant: significant decrease in systemic cytokines

## CC(/C=C/C(=O)NO)=C\[C@@H](C)C(=O)c1ccc(N(C)C)cc1 [TSA]
RAW macrophages; [5]
  IL-6 expression: complete reduction of IL-6 to background levels

## CC1=C(CO)C(=O)O[C@@H]([C@@H](C)[C@H]2CC[C@H]3[C@@H]4C[C@H]5O[C@]56[C@@H](O)C=CC(=O)[C@]6(C)[C@H]4CC[C@]23C)C1 [WA, Withaferin A]
RAW macrophages; [5]
  IL-6 expression: decreases in proinflammatory cytokine activity without entirely blocking expression; also recorded: completely inhibited IL-6 expression
RAW 264.7 macrophages
  inhibition of IL-6 expression in vitro: most effective at inhibiting IL-6 expression in vitro
Systemic cytokines; [6]
  decrease of systemic TNF-α vs CpG: 1.8 fold
  systemic IL-6: did not decrease IL-6 expression significantly
Systemic TNF-a and IL-6 [1]
  systemic IL-6: about a two-fold decrease in IL-6 levels
  systemic TNF-a: no change in systemic TNF-a levels compared to CpG alone
Systemic TNF-a and IL-6 [2]
  systemic IL-6: less effective at decreasing systemic IL-6 levels

## CC(=O)Nc1ccc(O)cc1 [acetaminophen]
ovalbumin
  anti-ovalbumin antibody titer: decreases in antibody titer
Systemic cytokines; [6]
  decrease of systemic TNF-α vs CpG: 1.8 fold
  systemic IL-6: did not decrease IL-6 expression significantly
Ovalbumin (OVA)
  anti-OVA antibody level lower than CpG alone: 2.4 fold
Systemic TNF-a and IL-6 [2]
  systemic IL-6: less effective at decreasing systemic IL-6 levels

## COc1cc(CNC(=O)CCCCC=CC(C)C)ccc1O [capsaicin, 8-methyl-N-vanillyl-6-nonenamide]
RAW macrophages; [5]
  IL-6 expression: reduced levels of IL-6
RAW 264.7 macrophages
  inhibition of IL-6 expression in vitro: most effective at inhibiting IL-6 expression in vitro
Systemic cytokines; [6]
  decrease of systemic TNF-α vs CpG: 28 fold
  reduction of systemic IL-6 vs CpG: 20 fold
Systemic cytokines; [7]
  systemic IL-6: 47.4 pg/mL
Systemic cytokines
  systemic MCP-1: slightly elevated MCP-1 levels
  systemic IFN-γ: increased IFN-γ levels at 24 h compared to CpG alone
Systemic cytokines; 1 h
  systemic IL-6 vs CpG alone, dose study: only decreased with 400 μg and 800 μg honokiol and 20 μg capsaicin
  systemic TNF-α vs CpG alone, all doses: decreased TNF-α levels significantly across all doses compared to CpG alone
  systemic TNF-α, comparison between doses: Doses of 5 μg and 20 μg decreased levels of TNF-α significantly more than 1 μg
Systemic TNF-a and IL-6 [1]
  systemic IL-6: IL-6 levels consistent with PBS injection
  systemic TNF-a: returning the systemic TNF-a levels to background
Ovalbumin (OVA); 1 μg and 5 μg
  anti-OVA antibodies in the serum vs CpG alone: did not change level of anti-OVA antibodies in the serum compared to CpG alone
Ovalbumin (OVA); 20 μg
  anti-OVA antibodies in the serum vs CpG alone: significantly increased serum levels
Systemic TNF-a and IL-6 [2]
  systemic IL-6: decreased to levels consistent with PBS
  systemic TNF-a: comparable to PBS alone
[3]
  pain response: pain response was observed

## COc1cc(O)cc(O)c1C(=O)/C=C/c1ccccc1 [cardamonin, Cardamonin]
RAW macrophages; [5]
  IL-6 expression: completely inhibited IL-6 expression
RAW macrophages; inhibitor 45 min before 100 ng/mL LPS, 3 h, listed as Cardamonin
  IL-6 expression: complete reduction of IL-6 to background levels
Systemic TNF-a and IL-6 [1]
  systemic TNF-a: no change in systemic TNF-a levels compared to CpG alone

## COc1cc(/C=C/C(=O)CC(=O)/C=C/c2ccc(O)c(OC)c2)ccc1O [curcumin]
RAW macrophages; [5]
  IL-6 expression: did not demonstrate a change in IL-6 activity in vitro
Systemic TNF-a and IL-6 [1]
  systemic IL-6: did not significantly alter the IL-6 levels
  systemic TNF-a: increasing the average expression levels

## C=CCc1ccc(O)c(-c2ccc(O)c(CC=C)c2)c1 [honokiol]
RAW macrophages; [5]
  IL-6 expression: decreases in proinflammatory cytokine activity without entirely blocking expression; also recorded: reduced levels of IL-6
RAW 264.7 macrophages
  inhibition of IL-6 expression in vitro: most effective at inhibiting IL-6 expression in vitro
RAW 264.7 macrophages; honokiol derivative study
  IL-6 expression: 260 pg/mL
  decrease of IL-6 vs LPS alone: 26 fold
Systemic cytokines; [6]
  decrease of systemic TNF-α vs CpG: 2.3 fold
  reduction of systemic IL-6 vs CpG: 3.5 fold
Systemic cytokines; [7]
  systemic IL-6: 266 pg/mL
Systemic cytokines
  systemic MCP-1: slightly elevated MCP-1 levels
  systemic IFN-γ: increased IFN-γ levels at 24 h compared to CpG alone
Systemic cytokines; 1 h
  systemic IL-6 vs CpG alone, dose study: only decreased with 400 μg and 800 μg honokiol and 20 μg capsaicin
  systemic TNF-α vs CpG alone, all doses: significant decrease in TNF-α expression compared to CpG alone
  systemic TNF-α, comparison between doses: no significant difference between the different doses
Systemic TNF-a and IL-6 [1]
  systemic IL-6: about a two-fold decrease in IL-6 levels
  systemic TNF-a: reduced the TNF-a levels by two-fold
Ovalbumin (OVA); honokiol 200, 400, 800 μg
  anti-OVA antibodies vs CpG alone, all doses: all doses of honokiol increased levels of anti-OVA antibodies compared to CpG alone
  dose with the highest anti-OVA antibody level: 400 µg
Systemic TNF-a and IL-6 [2]
  decrease in systemic IL-6: 4 fold

## CC(C)Cc1ccc(C(C)C(=O)O)cc1 (stereo not shown) [ibuprofen]
ovalbumin
  anti-ovalbumin antibody titer: decreases in antibody titer
Systemic cytokines; [6]
  decrease of systemic TNF-α vs CpG: 1.4 fold
  systemic IL-6: did not decrease IL-6 expression significantly
Systemic cytokines; [7]
  systemic TNF-α: 738 pg/mL
Ovalbumin (OVA)
  anti-OVA antibody level lower than CpG alone: 3.2 fold
Systemic TNF-a and IL-6 [2]
  systemic IL-6: less effective at decreasing systemic IL-6 levels

## O=c1cc(-c2ccc(O)c(O)c2)oc2cc(O)cc(O)c12 [luteolin]
RAW macrophages; [5]
  IL-6 expression: decreases in proinflammatory cytokine activity without entirely blocking expression

## Oc1ccc(C=Cc2cc(O)cc(O)c2)cc1 [resveratrol]
RAW macrophages; [5]
  IL-6 expression: decreases in proinflammatory cytokine activity without entirely blocking expression

## Pam3CSK4
Systemic TNF-α and IL-6
  systemic TNF-α and IL-6, effect of adding SN50 to the named adjuvant: significant decrease in systemic cytokines

## lipopolysaccharide [LPS]
RAW macrophages; 100 ng/mL LPS, 3 h post-activation
  IL-6 expression: 362 pg/mL
RAW 264.7 macrophages; honokiol derivative study
  IL-6 expression: 6848 pg/mL
[4]
  TNF-α and IL-6 in the cell supernatant: high levels of TNF-α and IL-6
